A word on the IC50: it is the concentration that inhibits the measured activity by half.

In BindingDB's records for PubMed 39270452 (Haihe Biopharma) one finds IC50 data, which are given here for 1 compound.

In the assay the target is T1, Ectonucleotide pyrophosphatase/phosphodiesterase family member 1 (Homo sapiens, UniProt P22413).
T1 sequence (P22413 whole entry): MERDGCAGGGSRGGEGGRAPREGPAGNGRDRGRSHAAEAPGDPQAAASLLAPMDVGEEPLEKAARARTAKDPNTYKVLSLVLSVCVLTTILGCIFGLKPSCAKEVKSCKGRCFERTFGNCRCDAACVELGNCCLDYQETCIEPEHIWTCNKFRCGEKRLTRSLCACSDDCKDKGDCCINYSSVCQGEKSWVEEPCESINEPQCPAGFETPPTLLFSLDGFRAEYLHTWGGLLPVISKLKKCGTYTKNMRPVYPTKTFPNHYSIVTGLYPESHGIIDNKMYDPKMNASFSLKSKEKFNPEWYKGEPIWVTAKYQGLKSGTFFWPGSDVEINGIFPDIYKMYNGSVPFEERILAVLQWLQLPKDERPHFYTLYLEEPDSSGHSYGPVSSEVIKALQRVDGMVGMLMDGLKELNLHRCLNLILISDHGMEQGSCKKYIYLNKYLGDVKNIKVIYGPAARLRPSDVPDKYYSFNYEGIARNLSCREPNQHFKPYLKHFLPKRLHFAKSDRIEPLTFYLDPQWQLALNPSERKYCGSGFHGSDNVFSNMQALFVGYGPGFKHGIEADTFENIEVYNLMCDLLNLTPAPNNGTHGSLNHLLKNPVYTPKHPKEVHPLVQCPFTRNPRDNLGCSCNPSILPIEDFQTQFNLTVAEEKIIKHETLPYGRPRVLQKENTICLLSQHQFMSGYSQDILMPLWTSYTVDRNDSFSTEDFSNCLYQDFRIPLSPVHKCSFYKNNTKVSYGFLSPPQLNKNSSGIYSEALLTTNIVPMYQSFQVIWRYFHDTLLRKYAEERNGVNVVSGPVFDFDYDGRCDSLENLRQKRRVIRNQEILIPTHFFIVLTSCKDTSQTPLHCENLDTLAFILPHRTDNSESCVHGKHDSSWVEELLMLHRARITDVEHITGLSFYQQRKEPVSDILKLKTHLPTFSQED
Description: Inhibition of human recombinant ENPP1 at pH 7.5.

For the compound `COc1cc2nccc(Nc3ccc(CC(=O)NO)cc3)c2cc1OC` [US20240383893, Compound A-1], the IC50 is 89 nM.
